Test results published in PMC9411704, “Assessment of the Carcinogenic Potential of Pretomanid in Transgenic Tg.rasH2 Mice” (International Journal of Toxicology, 2022).
Like-named read-outs stand apart in the source and are kept apart here.

What was measured:
[1] = Plasma exposure in the mouse micronucleus study; type: in vivo, mice
Tg.rasH2 mice = conditions: for Incidence of lung adenoma, multiple / Incidence of lung adenoma, single / Incidence of lung carcinoma / Incidence of lung tumors, combined / Incidence of thymus, thymoma / Incidence of urethra papilloma / Incidence of Harderian gland carcinoma / Incidence of Harderian gland adenoma / Incidence of hemangiosarcoma, combined / Incidence of hemangiosarcoma, multicentric (includes abdominal skin and thoracic wall) / Incidence of hemangiosarcoma, spleen / Incidence of hemangiosarcoma, uterus / Incidence of hemangiosarcoma, vagina / Survival rate / Incidence of hemangiosarcoma, kidney / Incidence of hemangiosarcoma, spinal cord, lumbar: 26 weeks
Experimental: The vehicle was 0.5% carboxymethylcellulose (CMC) with 0.1% Tween 80 (v/v). The vehicle and pretomanid formulations were administered to mice by oral gavage once daily at a dosing volume of 10 mL/kg. Individual dose volumes were calculated based on each animal’s most recently recorded body weight. The dose formulations were magnetically stirred at room temperature for at least 30 minutes prior to and during dosing. The positive control was urethane in 0.9% sodium chloride and was administered via intraperitoneal injection for a total of three times. The positive control formulation was allowed to stand at room temperature for at least 30 minutes and inverted several times prior to dose administration. Aliquots (0.5 to 1.0 mL) were collected from the top, bottom, and middle of the first (week 1), interim (week 13), and last (week 25) pretomanid dose formulations to assess the accuracy of the concentration and/or homogeneity.
Male and female Tg.rasH2 [CByB6F1-Tg(HRAS)2Jic (+/−hemizygous c-Ha-ras)] mice (n = 110/sex) approximately 5 weeks of age were assigned to the main cohort groups to assess carcinogenicity. Male and female wild type CByB6F1 mice [CByB6F1-Tg(HRAS)2Jic (−/−homozygous c-Ha-ras)] (n = 34/sex) approximately 6 weeks of age were assigned to the cohort of mice used to assess the toxicokinetics of pretomanid and its M50 metabolite. […] All mice were obtained from Taconic Biosciences (Germantown, NY). The supplier verified that the mice were murine pathogen-free and females were nulliparous and non-pregnant. At the time of dosing initiation (Day 1), the toxicokinetic mice were approximately 8 weeks of age. On Day 1 of the study, the body weights of the main cohort mice ranged from 19.2 to 25.9 grams (males) and from 15.9 to 20.4 grams (females), and the body weights of the TK cohort mice ranged from 23.4 to 30.2 grams (males) and from 17.6 to 23.5 grams (females).
This study assessed the carcinogenic potential of pretomanid following repeated oral gavage administration once daily for 26 weeks in hemizygous Tg.rasH2 [CByB6F1-Tg(HRAS)2Jic (+/− hemizygous c-Ha-ras)] mice. This study also evaluated the TK profile of pretomanid and metabolite M50 in wild-type CByB6F1 [CByB6F1-Tg(HRAS)2Jic (−/−homozygous c-Ha-ras)] mice. The study was conducted under GLP regulations.
For carcinogenicity assessment (main cohort), 25 mice/sex were included in the vehicle control and pretomanid-treated groups. At the time of dosing initiation (Day 1), the main cohort mice used for assessing carcinogenicity were approximately 7 weeks of age and weighed between 15.9 to 20.4 g (females) and 19.2 to 25.9 g (males). Male groups (Groups 2, 4, and 6) received pretomanid in vehicle at doses of 5, 15, and 40 mg/kg/day, respectively. Female groups (Groups 3, 5, and 7) received pretomanid in vehicle at doses of 10, 30, and 80 mg/kg/day. Positive control mice (n = 10/sex) were included in the main cohort and received three intraperitoneal injections of urethane in saline (1000 mg/kg/injection) on Days 1, 3, and 5. The test and control articles were administered at a dose volume of 10 mL/kg body weight.
Clinical signs, body weights, and food consumption were assessed for the main cohort animals to monitor animal health and any potential toxicity from pretomanid administration. In-life measurements were recorded in Provantis™ Version 9.4.6.3 (Instem, Philadelphia, PA).
All animals, including those in the TK cohort, were observed twice daily for morbidity and mortality. For animals in the main cohort, cage side observations were performed on the day of dosing within 2 hours after the last animal in each group was dosed (Days 1, 3, and 5 for positive control animals).

[2] = female, Tg.rasH2 [CByB6F1-Tg(HRAS)2Jic (+/- hemizygous c-Ha-ras)], mouse, in vivo, po, 10 mg/kg/day
[3] = female, Tg.rasH2 [CByB6F1-Tg(HRAS)2Jic (+/- hemizygous c-Ha-ras)], mouse, in vivo, po, 30 mg/kg/day
[4] = female, Tg.rasH2 [CByB6F1-Tg(HRAS)2Jic (+/- hemizygous c-Ha-ras)], mouse, in vivo, po, 80 mg/kg/day
[5] = female, Tg.rasH2 [CByB6F1-Tg(HRAS)2Jic, hemizygous c-Ha-ras], mouse, in vivo, po, 10 mg/kg/day
[6] = female, Tg.rasH2 [CByB6F1-Tg(HRAS)2Jic, hemizygous c-Ha-ras], mouse, in vivo, po, 30 mg/kg/day
[7] = female, Tg.rasH2 [CByB6F1-Tg(HRAS)2Jic, hemizygous c-Ha-ras], mouse, in vivo, po, 80 mg/kg/day
[8] = male, Tg.rasH2 [CByB6F1-Tg(HRAS)2Jic (+/- hemizygous c-Ha-ras)], mouse, in vivo, po, 5 mg/kg/day
[9] = male, Tg.rasH2 [CByB6F1-Tg(HRAS)2Jic (+/- hemizygous c-Ha-ras)], mouse, in vivo, po, 15 mg/kg/day
[10] = male, Tg.rasH2 [CByB6F1-Tg(HRAS)2Jic (+/- hemizygous c-Ha-ras)], mouse, in vivo, po, 40 mg/kg/day
[11] = male, Tg.rasH2 [CByB6F1-Tg(HRAS)2Jic, hemizygous c-Ha-ras], mouse, in vivo, po, 5 mg/kg/day
[12] = male, Tg.rasH2 [CByB6F1-Tg(HRAS)2Jic, hemizygous c-Ha-ras], mouse, in vivo, po, 15 mg/kg/day
[13] = male, Tg.rasH2 [CByB6F1-Tg(HRAS)2Jic, hemizygous c-Ha-ras], mouse, in vivo, po, 40 mg/kg/day

## O=[N+]([O-])c1cn2c(n1)OC[C@@H](OCc1ccc(OC(F)(F)F)cc1)C2 [Pretomanid, (6S)-2-nitro-6-{[4-(trifluoromethoxy)benzyl]oxy}-6,7-dihydro-5H-imidazo[2,1-b][1,3]oxazine]
[1]; male, CD-1(ICR) BR, mouse, single oral dose 2000 mg/kg, plasma
  Cmax: 36000 ng/mL
[1]; male, CD-1(ICR) BR, mouse, single oral dose 2000 mg/kg, plasma, read-out: Mean AUClast
  AUC(0-t): 1140 µg·h/mL
[1]; single oral 125 to 2000 mg/kg
  Dose proportionality of plasma exposure (Cmax and AUC): increased less than proportionally with dose level
Tg.rasH2 mice; Group 3F, female, 10 mg/kg/d
  Early death: cause of death: Multicentric hemangiosarcoma
  Early death: day of death: 184
  Early death: interpretation: Natural death
Tg.rasH2 mice; Group 5F, female, 30 mg/kg/d
  Early death: cause of death: Caught in feeder
  Early death: day of death: 7
  Early death: interpretation: Accidental
Tg.rasH2 mice; Group 7F, female, 80 mg/kg/d (two animals)
  Early death: interpretation: Natural death
Tg.rasH2 mice; [2]
  Incidence of lung adenoma, multiple: 0%
  Incidence of lung adenoma, single: 0%
  Incidence of lung carcinoma: 0%
  Incidence of lung tumors, combined: 0%
  Incidence of thymus, thymoma: 4%
  Incidence of urethra papilloma: 0%
Tg.rasH2 mice; [3]
  Incidence of Harderian gland carcinoma: 0%
  Incidence of lung adenoma, multiple: 0%
  Incidence of lung adenoma, single: 4%
  Incidence of lung carcinoma: 0%
  Incidence of lung tumors, combined: 4%
  Incidence of thymus, thymoma: 0%
  Incidence of urethra papilloma: 0%
Tg.rasH2 mice; [4]
  Incidence of Harderian gland carcinoma: 8%
  Incidence of lung adenoma, multiple: 0%
  Incidence of lung adenoma, single: 0%
  Incidence of lung carcinoma: 8%
  Incidence of lung tumors, combined: 8%
  Incidence of thymus, thymoma: 0%
  Incidence of urethra papilloma: 4%
Tg.rasH2 mice; [5]
  Incidence of Harderian gland adenoma: 0%
  Incidence of Harderian gland carcinoma: 4%
  Incidence of hemangiosarcoma, combined: 8%
  Incidence of hemangiosarcoma, multicentric (includes abdominal skin and thoracic wall): 4%
  Incidence of hemangiosarcoma, spleen: 0%
  Incidence of hemangiosarcoma, uterus: 4%
  Incidence of hemangiosarcoma, vagina: 0%
Tg.rasH2 mice; [6]
  Incidence of Harderian gland adenoma: 8%
  Incidence of hemangiosarcoma, combined: 4%
  Incidence of hemangiosarcoma, multicentric (includes abdominal skin and thoracic wall): 0%
  Incidence of hemangiosarcoma, spleen: 0%
  Incidence of hemangiosarcoma, uterus: 0%
  Incidence of hemangiosarcoma, vagina: 4%
Tg.rasH2 mice; [7]
  Incidence of Harderian gland adenoma: 0%
  Incidence of hemangiosarcoma, combined: 8%
  Incidence of hemangiosarcoma, multicentric (includes abdominal skin and thoracic wall): 0%
  Incidence of hemangiosarcoma, spleen: 8%
  Incidence of hemangiosarcoma, uterus: 0%
  Incidence of hemangiosarcoma, vagina: 0%
Tg.rasH2 mice; females, high-dose (80 mg/kg/day)
  Survival rate: 92%
Tg.rasH2 mice; females, low-dose (10 mg/kg/day)
  Survival rate: 96%
Tg.rasH2 mice; females, mid-dose (30 mg/kg/day)
  Survival rate: 100%
Tg.rasH2 mice; [8]
  Incidence of Harderian gland adenoma: 4%
  Incidence of Harderian gland carcinoma: 0%
  Incidence of hemangiosarcoma, combined: 4%
  Incidence of hemangiosarcoma, kidney: 4%
  Incidence of hemangiosarcoma, spinal cord, lumbar: 0%
  Incidence of hemangiosarcoma, spleen: 0%
Tg.rasH2 mice; [9]
  Incidence of Harderian gland adenoma: 0%
  Incidence of hemangiosarcoma, combined: 0%
  Incidence of hemangiosarcoma, kidney: 0%
  Incidence of hemangiosarcoma, spinal cord, lumbar: 0%
  Incidence of hemangiosarcoma, spleen: 0%
Tg.rasH2 mice; [10]
  Incidence of Harderian gland adenoma: 0%
  Incidence of hemangiosarcoma, combined: 12%
  Incidence of hemangiosarcoma, kidney: 0%
  Incidence of hemangiosarcoma, spinal cord, lumbar: 0%
  Incidence of hemangiosarcoma, spleen: 12%
Tg.rasH2 mice; [11]
  Incidence of lung adenoma, multiple: 0%
  Incidence of lung adenoma, single: 20%
  Incidence of lung carcinoma: 0%
  Incidence of lung tumors, combined: 20%
Tg.rasH2 mice; [12]
  Incidence of Harderian gland carcinoma: 0%
  Incidence of lung adenoma, multiple: 0%
  Incidence of lung adenoma, single: 8%
  Incidence of lung carcinoma: 0%
  Incidence of lung tumors, combined: 8%
Tg.rasH2 mice; [13]
  Incidence of Harderian gland carcinoma: 4%
  Incidence of lung adenoma, multiple: 0%
  Incidence of lung adenoma, single: 4%
  Incidence of lung carcinoma: 0%
  Incidence of lung tumors, combined: 4%
Tg.rasH2 mice; males, high-dose (40 mg/kg/day)
  Survival rate: 100%
Tg.rasH2 mice; males, low-dose (5 mg/kg/day)
  Survival rate: 100%
Tg.rasH2 mice; males, mid-dose (15 mg/kg/day)
  Survival rate: 100%
Tg.rasH2 mice; mouse, in vivo
  Incidence of hemangiosarcoma vs vehicle control: did not significantly increase
  Incidence of lung tumors vs vehicle control: did not significantly increase
  Incidence of non-vascular and non-pulmonary tumors: did not significantly increase
  Non-neoplastic microscopic findings: did not produce non-neoplastic microscopic findings
Tg.rasH2 mice; mouse, in vivo, 30 mg/kg/day
  Mean food consumption from Day 1 to 183 vs vehicle control: significantly increased
Tg.rasH2 mice; mouse, in vivo, po
  Clinical signs of toxicity: did not produce clinical signs of toxicity
  Effect on food consumption: did not affect food consumption
